In ChEMBL document CHEMBL1146998, “Cespitulactones A and B, new diterpenoids from Cespitularia taeniata” (Bioorg Med Chem Lett, 2006) one finds IC50 data, which are given here for nine molecules.

≈ marks a conversion by molar mass, not a printed value.

By IC50 is commonly meant the concentration that gives 50% inhibition.

What all share (assay type): functional, cell-based
For one test, the system named is WiDr. Nature of the test: Cytotoxicity against human WiDr cell line by MTT assay. (Tetrazolium assays rely on reduction of a dye to a coloured formazan, in cell work by metabolically active cells.)
The next test relates to Daoy. Nature of the test: Cytotoxicity against human Daoy cell line by MTT assay.
A further test has as its system DLD-1. Nature of the test: Cytotoxicity against human DLD1 cell line by MTT assay.
In the next test the test system is HeLa. Briefly: Cytotoxicity against human HeLa cell line by MTT assay.

As for `C=C1CC[C@@H]2CC[C@H](OC(=O)C/C(C)=C/[C@@H](OC(C)=O)C1)C(=O)C2(C)C` [CESPITULACTONE A MONOACETATE], the half-maximal inhibitory concentration (IC50) in the test with WiDr and in the test with Daoy was greater than 20 µg/mL throughout.
Regarding `C=C1CC[C@@H]2CCC3=C(C2(C)C)[C@@](OC)(C/C(C)=C/[C@@H](O)C1)OC3=O` [CESPITULACTONE B], the 50% inhibitory concentration (IC50) in the test on WiDr and in the test with Daoy was greater than 20 µg/mL in each case.
Consider `C=C1CC[C@@H]2CC[C@H](OC(=O)C/C(C)=C/[C@@H](OC(=O)c3ccc(Cl)cc3)C1)C(=O)C2(C)C`, for which the IC50 in the test with WiDr and in the test on Daoy was greater than 20 µg/mL throughout.
In the case of `C=C1CC[C@@H]2CCC3=C(C(=O)[C@@H](/C(C)=C/C(O)C1)[C@H]3O)C2(C)C` (stereo not given in full) [CESPITULARIN F], the IC50 with WiDr and in the test with Daoy was greater than 20 µg/mL each time.
As for `C=C1CC[C@@H]2CC[C@H](OC(=O)C/C(C)=C/[C@@H](OC(=O)c3ccccc3)C1)C(=O)C2(C)C`, the 50% inhibitory concentration (IC50) in the test with WiDr and in the test with Daoy was greater than 20 µg/mL in each case.
Take `C=C1CC[C@@H]2CCC3=C(C(=O)[C@@H](/C(C)=C/[C@@H](OC(C)=O)C1)[C@H]3O)C2(C)C` [CESPITULARIN J]: the IC50 with WiDr and in the test with Daoy was greater than 20 µg/mL throughout.
Regarding `CC(=O)O[C@@H]1/C(C(C)C)=C\C=C(/C)CC/C=C(\C)CC[C@@H]2O[C@@]2(C)[C@H]1OC(C)=O`, the IC50 with WiDr came out at 13.8 µg/mL (≈ 34.1 µM); with Daoy it was 16.9 µg/mL (≈ 41.8 µM).
For `C=C1CC[C@@H]2CC[C@H](OC(=O)C/C(C)=C/[C@@H](O)C1)C(=O)C2(C)C` [CESPITULACTONE A], the 50% inhibitory concentration (IC50) was 9.98 µg/mL (≈ 31.1 µM) with DLD-1, 3.69 µg/mL (≈ 11.5 µM) in the test with HeLa, greater than 20 µg/mL in the test on WiDr and greater than 20 µg/mL with Daoy.
With `C=C1CC[C@@H]2CCC3=C(C2(C)C)[C@@](O)(C/C(C)=C/[C@@H](O)C1)OC3=O` [CESPITULARIN D], the IC50 in the test on WiDr and in the test on Daoy was greater than 20 µg/mL throughout.
